Laboratory results from US20170362210A1, “ANTI-ESTROGENIC COMPOUNDS” (PFIZER INC., priority 2015, published 2017).
pIC50: −log10 of the molar value. Read-outs that look alike come from different tables or passages of the source. Marks after values point to notes of the source that are not given here.

Experiments:
[1] = system: estrogen-responsive reporter gene (ERE-tk109-Luc) in MCF-7 cells; experiment: Inhibition of E2-induced transcription, ERE-tk109-Luc reporter gene in MCF-7 cells; assay type: cell-based, human; details: 100 pM 17β-estradiol (E2), 18-22 hours, read-out: IC50, inhibition of E2-induced transcription in breast cells
Method: Representative compounds were tested for their inhibitory activity of estrogen according to the assay methods described in Hodges-Gallagher, L., Valentine, C. V., El Bader, S. and Kushner, P. J. (2007) “Histone Deacetylase Inhibitors Enhance the Efficacy of Hormonal Therapy Agents on Breast Cancer Cells and Blocks Anti-estrogen-Driven Uterine Cell Proliferation” Breast Cancer Res Treat, November; 105(3):297-309. Specifically, an estrogen-responsive reporter gene (ERE-tk109-Luc) was transiently transfected into MCF-7 cells and treated with anti-estrogens in triplicate in the presence of 100 pM 17β-estradiol (E2) for 18-22 hours. Luciferase activity was normalized to activity of E2 alone and IC50's were calculated using the least squares fit method.

[2] = system: MCF-7 breast cancer cells; experiment: Inhibition of E2-stimulated proliferation of MCF-7 breast cancer cells; assay type: cell-based, human; details: 100 pM E2, hormone-depleted medium, 6-8 days
Method: Proliferation of MCF-7 breast cancer cells was measured using a fluorescent DNA binding dye 6-8 days after treatment in triplicate with representative compounds in the presence of 100 pM E2 in hormone-depleted medium. IC50's were calculated from individual experiments as in Example 25.

[3] = system: AP activity in ECC-1 cells; experiment: Alkaline phosphatase (AP) assay in ECC-1 uterine cells, induction of AP activity; assay type: cell-based, human; details: 3 days, normalized to 500 pM E2, maximum activity observed regardless of dose
Method: (§1) Method for performing the alkaline phosphatase (AP) assay. ECC-1 cells (American Type Culture Collection, Manassas, Va.) were maintained in RPMI medium plus 10% fetal bovine serum at 37° C. At the beginning of the assay trypsinized cells were resuspended in RPMI medium plus 5% charcoal dextran stripped serum (CDSS, (Hyclone, Logan, Utah)) and plated at a density of 25-50 k cells per well into a 96-well plate for at least 6 hours. Representative compounds were diluted in serum-free medium and added 1:1 to plated cells in replicate wells (2.5% CDSS final). Plates were incubated for 3 days at 37° C. and subsequently frozen at −80° C. to lyse cells after removing the medium. Thawed plates were incubated with a chromogenic substrate of AP, p-nitrophenyl phosphate (Invitrogen, Grand Island, N.Y.), for 40 minutes at 40° C. Absorbances were read at 405 nm using a plate spectrophotometer. AP activity was normalized to 500 pM 17β-estradiol (E2), reported as the maximum activity observed for each individual experiment, regardless of dose.

ERα = target: T1, ERα (Homo sapiens, UniProt P03372); experiment: ERα expression in MCF-7 cell lysates (immunoblot); assay type: cell-based; details: MCF-7 cells, 100 nM compound, serum-free medium, 24 hours, immunoblot band intensity
T1 construct: ERα expression was detected in MCF-7 cell lysates treated with 100 nM antiestrogens in serum-free medium for 24 hours; endogenous in cells; host or cells: MCF-7
T1 sequence (P03372 1-595): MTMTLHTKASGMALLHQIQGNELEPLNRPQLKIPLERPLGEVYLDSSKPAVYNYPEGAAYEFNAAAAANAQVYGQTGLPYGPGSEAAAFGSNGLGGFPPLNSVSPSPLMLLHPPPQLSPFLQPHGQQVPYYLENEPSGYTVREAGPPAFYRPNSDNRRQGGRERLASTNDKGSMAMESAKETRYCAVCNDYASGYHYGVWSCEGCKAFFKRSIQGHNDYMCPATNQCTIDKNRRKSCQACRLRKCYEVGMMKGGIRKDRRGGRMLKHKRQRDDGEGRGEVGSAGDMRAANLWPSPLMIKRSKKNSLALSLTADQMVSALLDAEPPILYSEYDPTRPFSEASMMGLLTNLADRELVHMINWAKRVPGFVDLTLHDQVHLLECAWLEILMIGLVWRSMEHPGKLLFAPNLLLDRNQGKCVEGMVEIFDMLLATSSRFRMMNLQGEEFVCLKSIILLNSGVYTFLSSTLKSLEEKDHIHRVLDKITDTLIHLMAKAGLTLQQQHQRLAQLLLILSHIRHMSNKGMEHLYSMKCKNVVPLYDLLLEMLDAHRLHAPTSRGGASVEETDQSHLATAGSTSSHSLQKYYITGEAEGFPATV
Method: ERα expression was detected in MCF-7 cell lysates treated with 100 nM antiestrogens in serum-free medium for 24 hours and immunoblotted with an antibody specific to ERα.
Band intensity was normalized relative to vehicle for each individual experiment and listed in Table 3 (Relative change ERα levels (% vehicle)).

[4] = system: AP activity in ECC-1 cells; experiment: Alkaline phosphatase (AP) assay in ECC-1 cells co-treated with 500 pM E2; assay type: cell-based, human; details: 3 days
Method: as §1
AP activity was assayed as in Example 28 but cells were co-treated with 500 pM E2.

[5] = Homo sapiens, MCF7, MCF-7 cells

## CCCN1CC(Cc2ccc(C3Oc4cc(O)ccc4C(C)=C3c3ccc(O)cc3)cc2)C1 (single isomer, unassigned) [Compound 102, 3-(4-hydroxyphenyl)-4-methyl-2-(4-((1-propylazetidin-3-yl)methyl)phenyl)-2H-chromen-7-ol]
[1]; MCF-7 cells
  pIC50: 8.70
[2]; MCF-7 cells
  pIC50: 8.22
[3]
  Induction of AP activity in uterine cells (% E2): 9 % E2
ERα
  Relative change ERα levels (% vehicle): 50 % veh
[4]
  AP activity (% E2), cells co-treated with 500 pM E2: 8 % E2

## CCCN1CC(Cc2ccc(C3Oc4cc(O)ccc4C(C)=C3c3ccc(O)cc3)cc2)C1 (single isomer, unassigned) [Compound 103, 3-(4-hydroxyphenyl)-4-methyl-2-(4-((1-propylazetidin-3-yl)methyl)phenyl)-2H-chromen-7-ol]
[1]; MCF-7 cells
  pIC50: 7.57
[2]; MCF-7 cells
  pIC50: 7.23
[3]
  Induction of AP activity in uterine cells (% E2): 23 % E2
ERα
  Relative change ERα levels (% vehicle): 55 % veh
[4]
  AP activity (% E2), cells co-treated with 500 pM E2: 36 % E2

## CCCN1CC(Oc2ccc(C3Oc4cc(O)ccc4C(C)=C3c3ccc(O)cc3)cc2)C1 (single isomer, unassigned) [Compound 105, 3-(4-hydroxyphenyl)-4-methyl-2-(4-((1-propylazetidin-3-yl)oxy)phenyl)-2H-chromen-7-ol]
[1]; MCF-7 cells
  pIC50: 8.40
[2]; MCF-7 cells
  pIC50: 8.00
[3]
  Induction of AP activity in uterine cells (% E2): 4 % E2
ERα
  Relative change ERα levels (% vehicle): 39 % veh
[4]
  AP activity (% E2), cells co-treated with 500 pM E2: 4 % E2

## CCCN1CC(Oc2ccc(C3Oc4cc(O)ccc4C(C)=C3c3ccc(O)cc3)cc2)C1 (single isomer, unassigned) [Compound 106, 3-(4-hydroxyphenyl)-4-methyl-2-(4-((1-propylazetidin-3-yl)oxy)phenyl)-2H-chromen-7-ol]
[1]; MCF-7 cells
  pIC50: 7.27
[2]; MCF-7 cells
  pIC50: 6.94
[3]
  Induction of AP activity in uterine cells (% E2): 17 % E2
ERα
  Relative change ERα levels (% vehicle): 53 % veh
[4]
  AP activity (% E2), cells co-treated with 500 pM E2: 44 % E2

## CCCN1CC(Oc2ccc(C3Oc4cc(O)ccc4C(C)=C3c3ccc(O)cc3)cc2F)C1 (single isomer, unassigned) [Compound 108, 2-(3-fluoro-4-((1-propylazetidin-3-yl)oxy)phenyl)-3-(4-hydroxyphenyl)-4-methyl-2H-chromen-7-ol]
[1]; MCF-7 cells
  pIC50: 9.00
[2]; MCF-7 cells
  pIC50: 8.05
[3]
  Induction of AP activity in uterine cells (% E2): 3 % E2
[4]
  AP activity (% E2), cells co-treated with 500 pM E2: 4 % E2

## CCCN1CC(Oc2ccc(C3Oc4cc(O)ccc4C(C)=C3c3ccc(O)cc3)cc2F)C1 (single isomer, unassigned) [Compound 109, 2-(3-fluoro-4-((1-propylazetidin-3-yl)oxy)phenyl)-3-(4-hydroxyphenyl)-4-methyl-2H-chromen-7-ol]
[1]; MCF-7 cells
  pIC50: 6.96
[2]; MCF-7 cells
  pIC50: 7.40
[3]
  Induction of AP activity in uterine cells (% E2): 18 % E2
[4]
  AP activity (% E2), cells co-treated with 500 pM E2: 42 % E2

## CC1=C(c2ccc(O)cc2)C(c2ccc(OC3CN(CCC(F)(F)F)C3)cc2)Oc2cc(O)ccc21 (single isomer, unassigned) [Compound 110, 3-(4-hydroxyphenyl)-4-methyl-2-(4-((1-(3,3,3-trifluoropropyl)azetidin-3-yl)oxy)phenyl)-2H-chromen-7-ol]
[1]; MCF-7 cells
  pIC50: 7.85
[2]; [5]
  pIC50: 6.67
[3]
  Induction of AP activity in uterine cells (% E2): 35 % E2
ERα
  Relative change ERα levels (% vehicle): 104 % veh
[4]
  AP activity (% E2), cells co-treated with 500 pM E2: 36 % E2

## CC1=C(c2ccc(O)cc2)C(c2ccc(OC3CN(CCC(F)(F)F)C3)cc2)Oc2cc(O)ccc21 (single isomer, unassigned) [Compound 111, 3-(4-hydroxyphenyl)-4-methyl-2-(4-((1-(3,3,3-trifluoropropyl)azetidin-3-yl)oxy)phenyl)-2H-chromen-7-ol]
[1]; MCF-7 cells
  pIC50: 6.78
[2]; MCF-7 cells
  pIC50: < 6.52
[3]
  Induction of AP activity in uterine cells (% E2): 32 % E2
ERα
  Relative change ERα levels (% vehicle): 82 % veh
[4]
  AP activity (% E2), cells co-treated with 500 pM E2: 61 % E2

## CCCN1CC(Cc2ccc(C3Oc4cc(O)ccc4C(C)=C3c3ccc(O)cc3)cc2F)C1 (single isomer, unassigned) [Compound 112, 2-(3-fluoro-4-((1-propylazetidin-3-yl)methyl)phenyl)-3-(4-hydroxyphenyl)-4-methyl-2H-chromen-7-ol]
[1]; MCF-7 cells
  pIC50: 8.70
[2]; MCF-7 cells
  pIC50: 8.15
[3]
  Induction of AP activity in uterine cells (% E2): 5* % E2
ERα
  Relative change ERα levels (% vehicle): 35 % veh
[4]
  AP activity (% E2), cells co-treated with 500 pM E2: 4 % E2

## CCCN1CC(Cc2ccc(C3Oc4cc(O)ccc4C(C)=C3c3ccc(O)cc3)cc2F)C1 (single isomer, unassigned) [Compound 113, 2-(3-fluoro-4-((1-propylazetidin-3-yl)methyl)phenyl)-3-(4-hydroxyphenyl)-4-methyl-2H-chromen-7-ol]
[1]; MCF-7 cells
  pIC50: 7.89
[2]; MCF-7 cells
  pIC50: 7.62
[3]
  Induction of AP activity in uterine cells (% E2): 17 % E2
ERα
  Relative change ERα levels (% vehicle): 38 % veh
[4]
  AP activity (% E2), cells co-treated with 500 pM E2: 15 % E2

## CCCN1CC(Oc2ccc(C3Oc4cc(O)ccc4C(C)=C3c3ccccc3)cc2)C1 (single isomer, unassigned) [Compound 117, 4-methyl-3-phenyl-2-(4-((1-propylazetidin-3-yl)oxy)phenyl)-2H-chromen-7-ol]
[1]; MCF-7 cells
  pIC50: 8.40
[2]; MCF-7 cells
  pIC50: 7.48
[3]
  Induction of AP activity in uterine cells (% E2): 16 % E2
ERα
  Relative change ERα levels (% vehicle): 45 % veh
[4]
  AP activity (% E2), cells co-treated with 500 pM E2: 8 % E2

## CCCN1CC(Oc2ccc(C3Oc4cc(O)ccc4C(C)=C3c3ccc(O)cc3)cc2F)C1 (stereo not drawn) [Compound 107, 2-(3-fluoro-4-((1-propylazetidin-3-yl)oxy)phenyl)-3-(4-hydroxyphenyl)-4-methyl-2H-chromen-7-ol]
[1]; [5]
  pIC50: 8.30
[2]; [5]
  pIC50: 7.89
[3]
  Induction of AP activity in uterine cells (% E2): 3 % E2
[4]
  AP activity (% E2), cells co-treated with 500 pM E2: 4 % E2

## CCCN1CC(Oc2ccc(C3Oc4cc(O)ccc4C(C)=C3c3ccccc3)cc2)C1 (stereo not drawn) [Compound 114, 4-methyl-3-phenyl-2-(4-((1-propylazetidin-3-yl)oxy)phenyl)-2H-chromen-7-ol]
[1]; [5]
  pIC50: 8.30
[2]; [5]
  pIC50: 7.85
[3]
  Induction of AP activity in uterine cells (% E2): 15 % E2
[4]
  AP activity (% E2), cells co-treated with 500 pM E2: 23 % E2

## CCCN1CC(Oc2ccc(C3Oc4cc(O)ccc4C(C)=C3c3ccc(F)cc3)cc2)C1 (stereo not drawn) [Compound 115, 3-(4-fluorophenyl)-4-methyl-2-(4-((1-propylazetidin-3-yl)oxy)phenyl)-2H-chromen-7-ol]
[1]; [5]
  pIC50: 8.00
[2]; [5]
  pIC50: 7.82
[3]
  Induction of AP activity in uterine cells (% E2): 20 % E2
[4]
  AP activity (% E2), cells co-treated with 500 pM E2: 42 % E2

## CCCN1CC(Oc2ccc(C3Oc4cc(O)ccc4C(C)=C3c3ccc(F)cc3Cl)cc2)C1 (stereo not drawn) [Compound 116, 3-(2-chloro-4-fluorophenyl)-4-methyl-2-(4-((1-propylazetidin-3-yl)oxy)phenyl)-2H-chromen-7-ol]
[1]; [5]
  pIC50: 8.30
[2]; [5]
  pIC50: 8.30
[3]
  Induction of AP activity in uterine cells (% E2): 9 % E2
[4]
  AP activity (% E2), cells co-treated with 500 pM E2: 24 % E2
